The values below come from the supplement of paper PMC8988213.

Counter-ions that a name gives are not always drawn.

In test [1] the test system is ID211 patient-derived PDAC 2D line (post-FOLFIRINOX). Nature of the test: normalised area under dose-response curve (viability relative to DMSO, 7 doses up to 10 µM) (fraction (AUC)); higher = less sensitive (more viability retained). The following applies: 72 h; top dose: 10 µM. The method, boiled down:
(§1)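 Patient-derived 2D PDAC cells grown out from organoids were seeded robotically at 1,500–3,000 cells/well in 96-well plates and incubated overnight at 37°C, 5% CO2. SelleckChem library compounds were added at seven concentrations (3-fold dilution series, highest 10 µM) for 72 h. CellTiter-Glo luminescence was read after 10 min. Viability was normalised to the DMSO control, and area under the dose-response curve was derived with the GRmetrics R package.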

The test system of test [2] is ID188 patient-derived PDAC 2D line (pre-FOLFIRINOX). The description is as above. The settings on record: 72 h; top dose: 10 µM. The gist of the method: as §1

Turning to `Oc1ccc(-c2nc(-c3ccc(F)cc3)c(-c3ccncc3)[nH]2)cc1`, the “normalised area under dose-response curve” value (“normalised area” below) stood at 1 in test [1] and 0.95 in test [2].

With `CNC(=O)c1ccc(-c2cnc3ncc(Cc4ccc5ncccc5c4)n3n2)cc1F`, the “normalised area” value is 0.855 in test [1] and 0.956 in test [2].

As for `CS(=O)(=O)c1ccc(-c2cnc(NCc3ccco3)n3cnnc23)cc1` [EED226], the “normalised area” value was 0.846 in test [1] and 0.955 in test [2].

In the case of `CN1CCN(c2ccc(-c3ccncc3-c3cc(F)c(O)c(F)c3)cc2)CC1` [LJH685], the “normalised area” value in test [1] is 0.83; in test [2], 0.943.

In the case of `CC(C)CCn1c(CN2CCN(C(=O)C3CC3)CC2)nc2c1c(=O)n(C)c(=O)n2C` [NCT-501], the entries for the “normalised area” value in test [1] and in test [2] were 0.822 and 0.965, respectively.

Take `Nc1ncnc2n[nH]c(Nc3ccc(F)cc3)c12`: the “normalised area” value is 0.864 in test [1] and 0.947 in test [2].

`Nc1[nH]nc2nnc(-c3c(-c4ccccc4)nn4ccccc34)cc12`: the “normalised area” value in test [1] came to 0.849; in test [2] it was 0.847.

Take `Cc1ccc(NCCCc2ccccc2)c(N)c1` [JSH-23]: the “normalised area” value turned out to be 0.79 in test [1] and 0.97 in test [2].

Consider `O=c1[nH]c(C2CCCN2)nc2c1oc1ccc(Cl)cc12` (stereo not drawn), for which the “normalised area” value in test [1] came to 0.897; in test [2], 0.916.

On to `O=S(=O)(N=Cc1c(O)ccc2ccccc12)c1cccs1`, for which the “normalised area” value in test [1] is 0.941; in test [2] it was 0.913.

Take `O=c1cc(N2CCOCC2)oc2c(-c3cccc4c3sc3ccccc34)cccc12`: the “normalised area” value is 0.878 in test [1] and 0.991 in test [2].

On to `CCN(c1cc(-c2ccc(CN3CCOCC3)cc2)cc(C(=O)NCc2c(C)cc(C)[nH]c2=O)c1C)C1CCOCC1` [Tazemetostat (EPZ-6438)], for which the figures for the “normalised area” value in test [1] and in test [2] were 0.716 and 0.863, respectively.

On to `Cc1nnc(C(C)C)n1C1C[C@H]2CC[C@@H](C1)N2CC[C@H](NC(=O)C1CCC(F)(F)CC1)c1ccccc1` (stereo in doubt) [Maraviroc], for which the “normalised area” value in test [1] amounted to 0.865; in test [2], 1.

For `CN(C(=O)CNC(=O)/C=C/c1cccc(Cl)c1)C1CCS(=O)(=O)CC1` [ML264], the figures for the “normalised area” value in test [1] and in test [2] were 0.894 and 0.796, respectively.

Turning to `COc1nnc2ccc(N3CCC(c4ccc(OCCN5CCN(C)C(=O)[C@H]5C)cc4)CC3)nn12` [AZD5153], the “normalised area” value worked out at 0.59 in test [1] and 0.723 in test [2].

Regarding `CCCc1cc(C)[nH]c(=O)c1CNC(=O)c1cc(-c2ccc(N3CCN(C(C)C)CC3)nc2)cc2c1cnn2C(C)C` [UNC1999], the entries for the “normalised area” value in test [1] and in test [2] were 0.786 and 0.932, respectively.

In the case of `CNC(=O)c1ccc2cc([C@@]3(O)CCn4cncc43)ccc2c1` [TAK-700 (Orteronel)], the “normalised area” value came to 0.863 in test [1] and 1 in test [2].

Consider `CC(=O)c1cc2c(o1)C(=O)c1ccccc1C2=O` [Napabucasin], for which the “normalised area” value in test [1] came to 0.708; in test [2], 0.65.

In the case of `Clc1ccc(C(c2c[nH]c3ccccc23)c2c[nH]c3ccccc23)cc1` [C-DIM12], the “normalised area” value in test [1] came out at 0.897; in test [2], 0.92.

For the compound `O=C(Oc1cc(S(=O)(=O)c2ccccc2)ccc1[N+](=O)[O-])c1ccc(Cl)cc1`, the “normalised area” value stood at 0.869 in test [1] and 0.959 in test [2].

For `CN1C(=O)[C@@]23C[C@]4([C@]56C[C@@]78SS[C@@](CO)(C(=O)N7[C@H]5Nc5ccccc56)N(C)C8=O)c5ccccc5N[C@@H]4N2C(=O)[C@]1(CO)SS3` [Chaetocin], the figures for the “normalised area” value in test [1] and in test [2] were 0.0212 and 0.192, respectively.

`CCC(=O)Nc1cccc(Oc2nc(Nc3ccc(N4CCN(C)CC4)cc3OC)ncc2Cl)c1` [WZ4003]: the figures for the “normalised area” value in test [1] and in test [2] were 0.896 and 0.965, respectively.

On to `Nc1ccc(S(=O)(=O)NC(=O)c2ccccc2)cc1` [Sulfabenzamide], for which the results for the “normalised area” value in test [1] and in test [2] were 0.747 and 0.926, respectively.

Regarding `O=c1cc(-c2ccc(O)c(O)c2)oc2cc(O)cc(O)c12` [Luteolin], the “normalised area” value in test [1] was found to be 0.754; in test [2], 0.82.

Turning to `Cc1nn(C)c2c1C(c1ccc(C(F)(F)F)cc1)C(C#N)=C(N)O2` (stereo not drawn) [BQU57], the entries for the “normalised area” value in test [1] and in test [2] were 0.869 and 0.933, respectively.

Take `N#CN=C(NCCCCCCOc1ccc(Cl)cc1)Nc1ccncc1` [GMX1778 (CHS828)]: the “normalised area” value in test [1] came out at 0.296; in test [2] it was 0.283.

Regarding `COc1cccc2c1C(=O)c1c(O)c3c(c(O)c1C2=O)CC(O)(C(=O)CO)CC3OC1CC(N)C(O)C(C)O1` (stereo not drawn) [Doxorubicin (Adriamycin) HCl], the results for the “normalised area” value in test [1] and in test [2] were 0.584 and 0.672, respectively.

For the compound `COc1cc2c(Oc3ccc4[nH]c(C)cc4c3F)ncnc2cc1OCCCN1CCCC1` [Cediranib (AZD2171)], the “normalised area” value in test [1] worked out at 0.83; in test [2], 0.927.

In the case of `CCOC(=O)c1ccc(N2NC(=O)C(=Cc3ccc([N+](=O)[O-])o3)C2=O)cc1` [PYR-41], the figures for the “normalised area” value in test [1] and in test [2] were 0.807 and 0.91, respectively.

In the case of `COC(=O)c1ccc2c(c1)nc(NC(=O)c1ccccc1)n2CCCc1ccccc1` [BRD4770], the entries for the “normalised area” value in test [1] and in test [2] were 0.836 and 0.887, respectively.

As for `COc1ccc(C2=N[C@@H](c3ccc(Cl)cc3)[C@@H](c3ccc(Cl)cc3)N2C(=O)N2CCNC(=O)C2)c(OC(C)C)c1` [Nutlin-3], the results for the “normalised area” value in test [1] and in test [2] were 0.82 and 0.97, respectively.

For `CCc1cc2c(cc1N1CCC(N3CCOCC3)CC1)C(C)(C)c1[nH]c3cc(C#N)ccc3c1C2=O` [Alectinib hydrochloride], the “normalised area” value is 0.789 in test [1] and 0.779 in test [2].

`NC(=O)c1ccc(I)c([N+](=O)[O-])c1` [Iniparib (BSI-201)]: the “normalised area” value in test [1] was 0.952; in test [2], 0.939.

For `Cn1ncc(Cl)c1-c1cc(C(=O)N[C@H](CN)Cc2ccc(F)c(F)c2)oc1Cl`, the “normalised area” value in test [1] stood at 0.789; in test [2], 0.805.

Turning to `CC1=C(C(=O)OC2CCCCC2)C(c2ccc([N+](=O)[O-])cc2)C2=C(CC(C)(C)CC2=O)N1` (stereo not drawn) [FLI-06], the entries for the “normalised area” value in test [1] and in test [2] were 0.792 and 0.936, respectively.

For `CCCCCCCCCCCCCC(=S)NCCCC[C@H](NC(=O)OCc1ccccc1)C(=O)Nc1ccccc1` [Thiomyristoyl], the “normalised area” value in test [1] worked out at 0.787; in test [2] it was 0.925.

Turning to `CC(C)Oc1ccc(-c2c[nH]cc2CN(C)CCN)cc1` [MS023], the “normalised area” value is 0.634 in test [1] and 0.842 in test [2].

As to `CC(C)CCN1c2nc(Nc3cc(F)c(O)c(F)c3)ncc2N(C)C(=O)C1C` (stereo not drawn) [BI-D1870], the entries for the “normalised area” value in test [1] and in test [2] were 0.876 and 0.925, respectively.

Turning to `Cc1c(CN2CCC(Nc3ncnc4sc(CC(F)(F)F)cc34)CC2)ccc2[nH]c(C#N)cc12` [MI-463], the “normalised area” value in test [1] was found to be 0.825; in test [2] it was 0.713.

Take `C=CCNc1ncnc2ccc(Br)cc12` [SMER28]: the “normalised area” value in test [1] was found to be 0.825; in test [2], 0.997.

For `O=c1[nH]cnc2[nH]ncc12` [Allopurinol Sodium], the “normalised area” value in test [1] was found to be 0.843; in test [2], 0.951.

For `O=C1NCCCc2c1oc1ccc(O)cc21`, the “normalised area” value in test [1] is 0.878; in test [2], 0.904.

As for `N#CC[C@H](C1CCCC1)n1cc(-c2ncnc3[nH]ccc23)cn1`, the figures for the “normalised area” value in test [1] and in test [2] were 0.892 and 0.945, respectively.

As to `COc1ccc(-n2c(SCCCN3C(=O)c4cccc5cccc(c45)C3=O)nnc2-c2ccncc2)cc1` [WIKI4], the “normalised area” value in test [1] worked out at 0.85; in test [2], 0.837.

Consider `CC(C)(CO)c1cc2cc(NC(=O)C3(c4ccc5c(c4)OC(F)(F)O5)CC3)c(F)cc2n1C[C@@H](O)CO` [Tezacaftor(VX-661)], for which the “normalised area” value in test [1] worked out at 1.02; in test [2] it was 0.925.

On to `N#CSc1cc(SC#N)c(N)nc1N` [PR-619], for which the entries for the “normalised area” value in test [1] and in test [2] were 0.875 and 0.921, respectively.

`COc1ccc(CCc2nc3cc(-c4c(C)noc4C)ccc3n2C[C@H](C)N2CCOCC2)cc1Cl` [SGC-CBP30]: the “normalised area” value in test [1] was found to be 0.951; in test [2], 0.984.

For `OCc1ccc(-c2ccc(-c3ccc(CO)s3)o2)s1`, the “normalised area” value in test [1] was 0.896; in test [2] it was 0.917.

As for `COc1cc(OC)cc(N(CCNC(C)C)c2ccc3ncc(-c4cnn(C)c4)nc3c2)c1`, the “normalised area” value in test [1] came out at 0.893; in test [2] it was 0.927.
